{"source": "patent US12115176B2", "about": "“Methods and compositions relating to ClbP inhibition” (PRESIDENT AND FELLOWS OF HARVARD COLLEGE, priority 2021, dated 2024)", "test_system": "E. coli BW25113 BACpks", "assay": "Metabolomics (LC-MS, XCMS)", "format": "cell-based", "details": "BW pks (and NC101), 1 μM 3 versus DMSO", "description": "Metabolomics. One 5 mL starter culture each of E. coli BW25113 BACpks and E. coli BW25113 BACpksΔclbP was inoculated from frozen stocks and grown overnight at 37° C. in LB medium supplemented with 35 μg/ml chloramphenicol (LB+cam). Overnights were diluted 1:1000 in fresh LB+cam+1% DMSO with or without 1 μM inhibitor 3 in 5 replicates for each condition and grown for 20 hours at 37° C. A 500 μL aliquot was taken from each replicate, flash frozen in liquid nitrogen and lyophilized to dryness. Lyophilized pellets were extracted with 500 μL LC-MS grade methanol and prepared in the same manner as described above for metabolomics. Samples were analyzed by LC-MS on an Agilent Technologies 1200 series LC with a Phenomenex Luna C18 column (5 μm, 100 Å, 250×4.6 mm) coupled to an Agilent 6530 Quadrupole-Time of Flight mass spectrometer. The following chromatography conditions were used: 99% Solvent A in Solvent B for 1.5 minutes, linear gradient to 0% Solvent A in Solvent B over 43.5 minutes, 0% Solvent A for 8 minutes, linear gradient back to 99% Solvent A over 1 minute, equilibration in 99% solvent A for 9 minutes at flow rate of 0.4 mL/min and a 10 uL injection volume. Solvent A is water with 0.1% formic acid, solvent B is acetonitrile with 0.1% formic acid. […]"}
{"molecule": "CC1(C)OB([C@@H](CC(N)=O)NC(=O)CCCc2ccccc2)OC1(C)C", "note": "[Compound 3]", "values": [{"measurement": "changes in metabolites versus clbP deletion", "result": "resulted in the same changes in metabolites as genetic deletion of clbP"}]}
